Tests used:
ZR-75-1 cells = test: Effect on ZR-75-1 cell proliferation (11 days, DNA content); format: cell-based, human; settings: 1 mM
Procedure: For growth studies, ZR-75-1 cells were cultured in MEZR medium or in phenol red-free RPMI 1640 supplemented with 2 mM L-glutamine, 1 mM sodium pyruvate, 15 mM Hepes, antibiotics, 1 nM 17β-estradiol, 0.5 μg of bovine insulin per ml and 5% (v/v) charcoal-treated fetal bovine serum (SD medium), as indicated in the text. When polyamines or polyamine analogs were added to serum-containing media, 1 mM aminoguanidine was added to inhibit bovine serum amine oxidase (BSAO) activity (Morgan, D. M. L. 1989, in The Physiology of Polyamines (Bachrach, U., and Heimer, Y. M. eds) Vol. I, pp. 203-229, CRC Press, Boca Raton). The effect of the transport inhibitors on cell growth was measured by incubating ZR-75-1 cells for 11 days in medium supplemented with antagonist, polyamines and/or 1 mM DFMO as indicated, followed by colorimetric determination of DNA content with 3,4-diaminobenzoic acid (Simard, J., Dauvois, S., Haagensen, D. E., Lėvesque C., Mėrand, Y. and Labriė, F. 1990. Endocrinology 126: 3223-3231). Medium was changed every other day in these experiments because of the slow reaction of the compound with an unknown component present in the IMEM and RPMI 1640 medium formulation.
The biocompatibility of DESC, MESC, and DEASC was thus evaluated during a long-term (11-day) incubation with ZR-75-1 cells grown in RPMI 1640 containing 10% (v/v) FBS in the absence and presence of 1 mM aminoguanidine. […] Weak growth inhibition caused by the mixed MESC-cysteamine disulfide, however, apparently involved degradation by a copper amine oxidase.

polyamine transporter = test: Inhibition of [3H]spermidine uptake in CHO-K1 cells; format: cell-based, Chinese hamster; settings: MESC thioether derivatives
Procedure: To 1 ml of an extemporaneously prepared, DTT-free solution of MESC (20 mM in […]) were added 50 μl of 50 mM Tris-HCl (pH 7.0) and 105 μl of a 40 mM solution of either iodoacetamide, LY iodoacetamide or ASIB in a light-protected microcentrifuge tube, and the mixture was incubated for 2 hours at 37° C. […] Excess iodoacetamide was then inactivated by adding DTT to a final concentration of 40 mM and incubating the solution for 2 hours at 37° C. […] The effect of the respective DTT-inactivated iodoacetamide on spermidine transport was determined in parallel by incubating cells with the same reaction mixture from which MESC was omitted. […] J. Biol. […] Cells were then lysed with 200-μl aliquot of 1 N NaOH and incubated for 30 minutes at 60° C. After neutralization with 200 μl of 1 N HCl, radioactivity was determined from a 250-μl of the cell lysate by scintillation counting. Uptake activity was expressed per amount of total cellular protein as determined by the method of Bradford (Bradford, M. M. 1976. Anal. Biochem. 72: 248-254). […] K[…] Ki and Vmax values were then estimated by Lineweaver-Burke analysis. For competitive inhibitors, Ki values were also estimated by measuring uptake activity in the presence of logarithmically increasing concentrations of antagonist, and using the Cheng-Prusoff equation (Cheng, Y.-C. and Prusoff, W. H. 1973. Biochem. Pharmacol. 22: 3099-3108) by iterative curve fitting for a sigmoidal curve. For mixed competitive/noncompetitive inhibition, two methods were used to calculate kinetic constants. […] C. 1976. Enzymes, 3rd Ed., Academic Press, San Diego, Calif.). […] C. 1976. Enzymes, 3rd Ed., Academic Press, San Diego, Calif.). Intracellular Accumulation

SMILES	Effect of aminoguanidine alone on cell growth (ZR-75-1 cells)	Ki toward spermidine uptake compared with MESC (polyamine transporter)
N=C(N)NN [aminoguanidine, reference compound]	slight inhibitory effect	
[N-]=[N+]=Nc1ccc(C(=O)NCCCCNC(=O)CSCCNC(=O)C(CCCNCCCN)NCCCN)c(O)c1 (stereo not shown) [MESC-ASIB]		virtually identical to that of MESC
NCCCNCCCC(NCCCN)C(=O)NCCSCC(N)=O (stereo not shown) [MESC-acetamide]		virtually identical to that of MESC
NCCCNCCCC(NCCCN)C(=O)NCCSCC(=O)NCCN1C(=O)c2cc(S(=O)(=O)O)cc3c(N)c(S(=O)(=O)O)cc(c23)C1=O (stereo not shown) [MESC-LY]		virtually identical to that of MESC
